Measured values as given in US20210186947A1, “TOMM6-INTERACTING EXTRACTS AND COMPOUNDS FOR USE IN THE TREATMENT AND PROPHYLAXIS OF NERVOUS SYSTEM DISEASES, ATHEROSCLEROSIS, HEPATITIS B INFECTION AND HUMAN PAPILLOMA VIRUS (HPV) INFECTION” (ETH ZURICH, priority 2018, published 2021).

Assays:
Ccr9 = experiment: Whole genome microarray gene expression analysis of aortic genes: Ccr9; format: in vivo; conditions: ApoE-/- mice, 10 mg/kg/day for 8 months
Experimental: Whole genome microarray gene expression profiling was performed with aortic specimens isolated from 9-month-old ApoE−/− mice without treatment and with oral treatment for 8 months with alizarin (10 mg/kg/day), and untreated age-matched B6 control mice. Total RNA was isolated by the RNeasy Mini kit according to the protocol of the manufacturer (Qiagen). RNA purity was between 1.8 and 2 as determined by the absorbance ratio of 260/280. RNA quality and absence of signs of degradation were also controlled by RNA electrophoresis on a denaturing agarose gel by the presence of bright bands of 28S and 18S ribosomal RNA. Total RNA was processed for whole genome microarray gene expression profiling with the GeneChip One-Cycle Target Labeling System (Affymetrix) according to the protocol of the manufacturer (Affymetrix GeneChip Expression Analysis Technical Manual Rev. 5). […]
Alzheimer's Disease (AD) is the most frequent form of dementia in the elderly. […] Atherosclerotic lesion area was assessed with oil red O-stained aortas isolated from 9-month-old ApoE−/− mice (FIG. 17A). […] The aortic expression levels of neuronal marker genes of alizarin-treated ApoE−/− mice were determined compared to untreated ApoE−/− mice and untreated B6 mice without atherosclerosis (FIG. 17D,E).

[1] = Sub-chronic oral toxicity in rats; format: in vivo, Sprague Dawley rats
Experimental: Sub-chronic toxicity studies in dogs (German Shepherd dogs) and rats (Sprague Dawley rats) were performed by the Center of Applied Analytical and Veterinary Studies, Cairo, Egypt.
The oral toxicity of alizarin (Compound-1) in rats was determined in a sub-chronic toxicity study. Rats were treated for 3 months with a once daily oral dose of alizarin of 25 mg/kg/day, 50 mg/kg/day and 100 mg/kg/day. […] The good tolerability of alizarin in rats and dogs is supported by previous observations in humans, which document that long-term treatment for several years with alizarin and alizarin-containing plant extracts is not toxic and was previously used to prevent recurrence of calcium-containing urinary stones (Lorenz et al., Methods Find. Exp. Clin. Pharmacol. 7, 637-643, 1985). Taken together, alizarin has good oral bioavailability and a wide therapeutic window.
Pharmacokinetic data of Compound-7 were determined as another representative TOMM6/Tomm6 inducer with a different chemical structure than alizarin (Compound-1). […] The oral bioavailability of Compound-7 in dogs was much higher than in rats because oral doses of Compound-7 required to achieve equivalent peak serum concentrations were approximately 10-fold higher in rats compared to dogs (FIG. 20B). Again, this observation is in agreement with the equivalent surface area dosage rule, according to which rats and mice usually require a 10-12-fold higher dose than dogs and humans. […] This second peak could reflect enterohepatic recirculation of Compound-7.

[2] = humans; cited from earlier work
Abeta plaques = experiment: Abeta plaque load in Tg2576 mice, immunohistology with BAM-10 antibody; format: in vivo; conditions: 18-month-old Tg2576 mice treated for 6 months
mammalian cells = mammalian cells and in vivo; cited from earlier work
Salmonella strain TA2637 = conditions: cited from earlier work
[3] = Measurement of serum level in rats by HPLC; format: in vivo, Sprague Dawley rats
Experimental: Serum concentrations of alizarin were determined with serum isolated from the blood of male and female German shepherd dogs (age: 8-9 months) taken at different time points (0.5 h, 1 h, 2 h, 4 h, 6 h, 8 h, 24 h) after oral intake of the indicated doses for 4 weeks. In addition, serum concentrations of alizarin (Compound-1) were determined in male and female Sprague Dawley rats (body weight: 200-250 g) treated for 1 month and/or three months by oral gavage of alizarin at a once daily dose of 100 mg/kg, 50 mg/kg, 25 mg/kg and 12.5 mg/kg. Serum proteins were removed by acetonitrile precipitation, and alizarin was extracted by chloroform before separation on an HPLC-C18 column (Poroshell 120 EC-C18, 3.0×50 mm, Agilent) with an HPLC system (Agilent 1100 Series) and detection at OD245 nm. For quantitative determination of Compound-7 and Compound-10F in rat and dog serum, serum proteins were also removed by acetonitrile precipitation before HPLC analysis as detailed above and detection at OD254 nm.

Structure (SMILES): O=C1c2ccccc2C(=O)c2c1ccc(O)c2O [Compound-1, 1,2-dihydroxyanthraquinone]
- aortic expression of Ccr9 (Ccr9): significantly decreased expression
- histopathology of heart, liver, kidney ([1]; rats, 3 months, once daily oral 100 mg/kg): did not show any detectable alterations
- adverse effects on body, liver, heart and kidney weight, serum calcium, creatinine, BUN, ALT, AST ([1]; rats, 3 months, once daily oral 25, 50 and 100 mg/kg/day): did not find any significant adverse effects
- difference between therapeutic and toxic doses (therapeutic index) ([1]; therapeutic dose 10 mg/kg once daily in rodent models): more than 10 fold
- toxicity of long-term treatment for several years [2]: is not toxic
- Abeta plaque load in hippocampal and brain cortical areas (Abeta plaques): significantly inhibited the accumulation of Abeta plaques
- tumor promotion (mammalian cells): not a tumor promotor
- mutagenicity in the Ames test (Salmonella strain TA2637): could be mutagenic
- oral bioavailability / serum concentrations after oral intake ([3]; rats): achieves therapeutic serum concentrations
- oral doses required to achieve equivalent peak serum concentrations, higher in rats compared to dogs ([3]; rats vs dogs): approximately 10 fold
